Measured values published in the NIST ThermoML archive (doi:10.1016/j.tca.2018.11.018).

Assay: xn = mol fraction of the nth substance listed
Details: 100 kPa, Liquid; for viscosity: Falling or rolling sphere viscometry; for mass density: Vibrating tube method

CCCC[N+](CC)(CC)CC.[Br-] [butyltriethyl ammonium bromide] + O
Details | mass density [kg/m3] | viscosity [mPa·s]
298.15 K, x1 = 0.02 | 1030.2 | 1.581
298.15 K, x1 = 0.04 | 1057.3 | 2.599
298.15 K, x1 = 0.06 | 1078.8 | 4.044
298.15 K, x1 = 0.08 | 1095.3 | 5.87
298.15 K, x1 = 0.105 | 1111 | 10.02
298.15 K, x1 = 0.13 | 1122.8 | 14.11
298.15 K, x1 = 0.16 | 1133.5 | 21.36
298.15 K, x1 = 0.189 | 1140.9 | 30.66
298.15 K, x1 = 0.22 | 1147.3 | 43.63
298.15 K, x1 = 0.253 | 1152.5 | 63.73
303.15 K, x1 = 0.02 | 1028.2 | 1.381
303.15 K, x1 = 0.04 | 1054.7 | 2.216
303.15 K, x1 = 0.06 | 1075.6 | 3.393
303.15 K, x1 = 0.08 | 1091.9 | 4.835
303.15 K, x1 = 0.105 | 1107.4 | 8.222
303.15 K, x1 = 0.13 | 1119.1 | 11.45
303.15 K, x1 = 0.16 | 1129.8 | 16.85
303.15 K, x1 = 0.189 | 1137.3 | 23.62
303.15 K, x1 = 0.22 | 1143.7 | 33
303.15 K, x1 = 0.253 | 1148.9 | 47.05
308.15 K, x1 = 0.02 | 1026 | 1.223
308.15 K, x1 = 0.04 | 1051.9 | 1.921
308.15 K, x1 = 0.06 | 1072.5 | 2.885
308.15 K, x1 = 0.08 | 1088.4 | 4.054
308.15 K, x1 = 0.105 | 1103.8 | 6.767
308.15 K, x1 = 0.13 | 1115.4 | 9.328
308.15 K, x1 = 0.16 | 1126.1 | 13.49
308.15 K, x1 = 0.189 | 1133.6 | 18.55
308.15 K, x1 = 0.22 | 1140.1 | 25.39
308.15 K, x1 = 0.253 | 1145.4 | 35.52
313.15 K, x1 = 0.02 | 1023.6 | 1.091
313.15 K, x1 = 0.04 | 1049.1 | 1.682
313.15 K, x1 = 0.06 | 1069.2 | 2.488
313.15 K, x1 = 0.08 | 1084.9 | 3.441
313.15 K, x1 = 0.105 | 1100.2 | 5.583
313.15 K, x1 = 0.13 | 1111.7 | 7.649
313.15 K, x1 = 0.16 | 1122.4 | 10.91
313.15 K, x1 = 0.189 | 1129.9 | 14.79
313.15 K, x1 = 0.22 | 1136.5 | 19.92
313.15 K, x1 = 0.253 | 1141.9 | 27.22
318.15 K, x1 = 0.02 | 1021 | 0.981
318.15 K, x1 = 0.04 | 1046.1 | 1.485
318.15 K, x1 = 0.06 | 1065.9 | 2.164
318.15 K, x1 = 0.08 | 1081.4 | 2.942
318.15 K, x1 = 0.105 | 1096.5 | 4.648
318.15 K, x1 = 0.13 | 1108 | 6.334
318.15 K, x1 = 0.16 | 1118.7 | 8.969
318.15 K, x1 = 0.189 | 1126.2 | 12.07
318.15 K, x1 = 0.22 | 1132.8 | 15.94
318.15 K, x1 = 0.253 | 1138.3 | 21.51
323.15 K, x1 = 0.02 | 1018.3 | 0.889
323.15 K, x1 = 0.04 | 1042.9 | 1.324
323.15 K, x1 = 0.06 | 1062 | 1.906
323.15 K, x1 = 0.08 | 1077.8 | 2.567
323.15 K, x1 = 0.105 | 1092.8 | 3.92
323.15 K, x1 = 0.13 | 1104.2 | 5.293
323.15 K, x1 = 0.16 | 1115 | 7.453
323.15 K, x1 = 0.189 | 1122.5 | 9.912
323.15 K, x1 = 0.22 | 1129.2 | 12.97
323.15 K, x1 = 0.253 | 1134.7 | 17.19
328.15 K, x1 = 0.02 | 1015.8 | 0.812
328.15 K, x1 = 0.04 | 1039.9 | 1.189
328.15 K, x1 = 0.06 | 1059.1 | 1.69
328.15 K, x1 = 0.08 | 1074.2 | 2.252
328.15 K, x1 = 0.105 | 1089.1 | 3.358
328.15 K, x1 = 0.13 | 1100.5 | 4.483
328.15 K, x1 = 0.16 | 1111.2 | 6.266
328.15 K, x1 = 0.189 | 1118.8 | 8.29
328.15 K, x1 = 0.22 | 1125.6 | 10.76
328.15 K, x1 = 0.253 | 1131.2 | 14.11
333.15 K, x1 = 0.02 | 1013.01 | 0.75
333.15 K, x1 = 0.04 | 1036.64 | 1.077
333.15 K, x1 = 0.06 | 1055.6 | 1.514
333.15 K, x1 = 0.08 | 1070.54 | 1.996
333.15 K, x1 = 0.105 | 1085.3 | 2.937
333.15 K, x1 = 0.13 | 1096.66 | 3.847
333.15 K, x1 = 0.16 | 1107.44 | 5.319
333.15 K, x1 = 0.189 | 1115.11 | 7.032
333.15 K, x1 = 0.22 | 1121.89 | 9.062
333.15 K, x1 = 0.253 | 1127.56 | 11.8
338.15 K, x1 = 0.02 | 1010 | 0.7
338.15 K, x1 = 0.04 | 1033.3 | 0.999
338.15 K, x1 = 0.06 | 1052 | 1.363
338.15 K, x1 = 0.08 | 1066.8 | 1.781
338.15 K, x1 = 0.105 | 1081.5 | 2.425
338.15 K, x1 = 0.13 | 1092.8 | 3.339
338.15 K, x1 = 0.16 | 1103.7 | 4.555
338.15 K, x1 = 0.189 | 1111.4 | 5.982
338.15 K, x1 = 0.22 | 1118.2 | 7.687
338.15 K, x1 = 0.253 | 1124 | 9.932
343.15 K, x1 = 0.02 | 1006.6 | 0.655
343.15 K, x1 = 0.04 | 1029.5 | 0.922
343.15 K, x1 = 0.06 | 1048.4 | 1.233
343.15 K, x1 = 0.08 | 1063.1 | 1.601
343.15 K, x1 = 0.105 | 1077.7 | 2.156
343.15 K, x1 = 0.13 | 1089 | 2.959
343.15 K, x1 = 0.16 | 1099.8 | 3.974
343.15 K, x1 = 0.189 | 1107.6 | 5.163
343.15 K, x1 = 0.22 | 1114.6 | 6.602
343.15 K, x1 = 0.253 | 1120.3 | 8.504
348.15 K, x1 = 0.02 | 1003.4 | 0.608
348.15 K, x1 = 0.04 | 1026.5 | 0.876
348.15 K, x1 = 0.06 | 1044.7 | 1.124
348.15 K, x1 = 0.08 | 1059.3 | 1.446
348.15 K, x1 = 0.105 | 1073.8 | 1.931
348.15 K, x1 = 0.13 | 1085.1 | 2.658
348.15 K, x1 = 0.16 | 1096 | 3.489
348.15 K, x1 = 0.189 | 1103.8 | 4.485
348.15 K, x1 = 0.22 | 1110.8 | 5.702
348.15 K, x1 = 0.253 | 1116.7 | 7.325
